Experimental findings from ChEMBL document CHEMBL3392922, “MMV box screening in the Dd2 P. falciparum strain” are described below.

Molecules are shown by their SMILES.

The test concerns Plasmodium falciparum. Briefly: MMV: IC50 determined against P. falciparum Dd2-luc strain using a Malaria Sybr Green I Fluorescence assay. Starting conditions were 1% trophozoite synchronised parasites at 2% haematocrit. Fluorescence detection completed after 48hr incubation at 37 degrees C under 1% O2, 3% CO2 and balance N2. Type of test: functional, organism-based. As to conditions: Dd2, 48 h.
As a reminder, the IC50 is the midpoint of a concentration-inhibition curve. Lower therefore signals greater potency. Compound `O=C(Nc1ccc(Cl)c(Cl)c1)Nc1ccc(Cl)c(Cl)c1` returned an IC50 of 3880 nM. The same measure for `COc1ccc(-c2cc3c(nn2)-c2ccccc2C3=O)cc1`: 731 nM. Turning to `COc1ccc(-c2c(C)nn3c(N)c(C#N)cnc23)cc1OC`, the IC50 worked out at 305 nM. The same measure for `COc1ccc2c(c1)C1(Nc3ccccc3-c3nc4ccccc4n31)C(=O)N2` (stereo unspecified): 239 nM. With `COc1cccc(Cn2c(Oc3ccccc3)nc3c2c(=O)n(C)c(=O)n3C)c1` the figure was 1150 nM; with `OC(CNCC1CCCO1)Cn1c2ccc(Cl)cc2c2cc(Cl)ccc21` (stereo unspecified), 734 nM; with `CCN(CC)CCNc1ncnc2c1[nH]c1ccc(Cl)cc12`, 373 nM. In the case of `CN1CCN(c2ncnc3c2[nH]c2ccc(Cl)cc23)CC1`, the midpoint of inhibition, the IC50, lay at 1180 nM. The same measure for `CC1(c2ccccc2)Nc2ccccc2-c2nc3ccccc3n21` (stereo unspecified): 263 nM. The compound `COc1ccc(CCN2C(=O)c3[nH]nc(-c4cc(Cl)c(C)cc4O)c3C2c2ccccc2F)cc1` (stereo unspecified) gave an IC50 of 3190 nM. This IC50 is about 12-fold higher than that of the compound before.

For the compound `COc1cccc(C2(C)Nc3ccccc3-c3nc4ccccc4n32)c1` (stereo unspecified), the IC50 was 1410 nM.

The compound `CC(C)CNC(=O)c1c(N)n(CCc2ccccc2F)c2nc3ccccc3nc12` came in with an IC50 of 680 nM. The same measure for `CC(C)(C)CC(C)(C)NCC(O)COc1ccc(Cl)cc1Cl` (stereo unspecified): 494 nM; for `Cc1cccc(-n2ncc3c(O)nc(-n4nc(C)cc4NC(=O)c4cc5ccccc5o4)nc32)c1`: 994 nM; for `O=C(Nc1ccccc1O)c1ccc(Oc2cccc(C(=O)Nc3ccccc3O)c2)cc1`: 202 nM. For the compound `Cc1ccc(-c2cc3c(nn2)-c2ccccc2C3=O)cc1`, the IC50 is 1260 nM.

Regarding `N=c1n(CCN2CCCCC2)c2ccccc2n1CC(O)c1cccc(Br)c1` (stereo unspecified), the IC50 was determined as 1110 nM. The same measure for `COc1cccc(O)c1CN1CCC2(CCCN(Cc3ccc(F)cc3)C2)C1` (stereo unspecified): 502 nM.

For the compound `Cc1ccc(-c2cc(C(=O)Nc3ccc(S(=O)(=O)N4CCCCC4)cc3)[nH]n2)c(O)c1`, the IC50 turned out to be 2350 nM. The same measure for `CCOC(=O)C1=C(C)N=c2sc(=Cc3cc(Cl)ccc3O)c(=O)n2C1c1ccc(OC)cc1` (stereo unspecified): 527 nM. The same measure for `COc1ccc(-c2nc(NC(=O)CS(=O)(=O)c3ccc(F)cc3)sc2C)cc1`: 515 nM; for `FC(F)(F)c1cccc(Nc2nc3ccccc3nc2Nc2cccc(C(F)(F)F)c2)c1`: 739 nM. The compound `FC(F)(F)c1ccc(Nc2nnnc3ccccc23)cc1` registered an IC50 of 3990 nM. Compared with the last compound, the IC50 is about 5.4-fold higher. Regarding `c1ccc(-c2ccc(-c3nc4ccccc4[nH]3)cc2)cc1`, the IC50 is 2000 nM. In turn, `CCC(C)NCC(O)(c1ccc(Cl)cc1)c1ccc(Cl)cc1` (stereo unspecified) displayed an IC50 of 551 nM. Turning to `COc1ccc(CN2CCCC(C(=O)c3ccc(C(F)(F)F)cc3)C2)c(O)c1` (stereo unspecified), it took 635 nM to reach half-maximal inhibition (IC50). The same measure for `COc1cccc(NC(=O)[C@H](C(C)C)n2c(=O)[nH]c3ccccc3c2=O)c1`: 158 nM. Turning to `COc1ccc2nc(N)nc(C)c2c1`, the IC50 turned out to be 1870 nM. Compared with the last compound, the IC50 is about 12-fold higher.

In turn, `COc1cccc(NC(=O)Cn2c(C)c(C#N)c3ccccc32)c1` showed an IC50 of 1270 nM. With `CCC(c1ccccc1)c1nn2c(-c3cccs3)nnc2s1` (stereo unspecified) the figure was 338 nM. With `CC(C)(C)c1ccc(O)c(CNC2CCCCC2)c1` the figure was 181 nM; with `COc1ccc(CCN2CCC(CN(C)Cc3cnn(-c4ccccc4)c3)CC2)cc1`, 2680 nM; with `O=C(NC(c1ccccc1)c1ccc2cccnc2c1O)c1ccccc1` (stereo unspecified), 426 nM. With `COCCNC(=O)c1ccc(OC2CCN(Cc3ccc(F)c(F)c3)CC2)c(Cl)c1`, it took 754 nM to reach half-maximal inhibition (IC50). Against the preceding compound, the IC50 is about 1.8-fold higher. The same measure for `CCCCNc1nc(NC(C)(C)C)nc(NC(C)(C)C)n1`: 893 nM; for `COc1ccc(CNC(=O)c2cc3c(=O)n4ccccc4nc3n(CCc3ccccc3)c2=N)cc1`: 1230 nM. With `CCOC(=O)c1c(NC(=O)c2ccccc2)sc2c(O)c(CN(CC)CC)ccc12` the figure was 127 nM. With `O=C(NC1CCCC1)c1ccc(N2CCC(NCc3cccc(C(F)(F)F)c3)CC2)cc1` the figure was 468 nM; with `CCOc1cc(Br)c(C(C)NC(=O)c2cccc(OC)c2)cc1OCC` (stereo unspecified), 1440 nM. Compound `CC(C)=CCN1CCC(C(=O)Nc2ccc(-c3nc4ccccc4[nH]3)cc2)CC1` yielded an IC50 of 1240 nM. With `CCOc1cc(Cl)c(C(C)NC(=O)c2cccc(OC)c2)cc1OCC` (stereo unspecified) the figure was 649 nM. With `Cc1cc(Nc2ccc(C)c(Cl)c2)n2nc(C(F)(F)F)nc2n1` the figure was 1240 nM; with `FC(F)(F)c1cccc(Nc2nc(-c3ccccc3)nc3ncccc23)c1`, 885 nM; with `Nc1ccc(-c2nc3cc(Cc4ccc5[nH]c(-c6ccc(N)cc6)nc5c4)ccc3[nH]2)cc1`, 1820 nM.

Regarding `CC(=O)c1sc(NC(=O)Nc2ccc(C)cc2C)nc1C`, the concentration for half-maximal inhibition (IC50) is 1970 nM. The IC50 values of the last two compounds are within 1.5-fold of each other.

As for `Cn1c(=O)n(C)c2cc(CNCCNc3ccnc4cc(Cl)ccc34)ccc21`, the IC50 was 197 nM. The same measure for `COc1ccc(CNC2CCN(c3ccc(NC(=O)c4cccc(Cl)c4)cc3)CC2)cc1OC`: 1190 nM; for `CC(NCc1ccccc1)c1cc(Cl)ccc1O` (stereo unspecified): 498 nM; for `O=c1cc(NC2CCN(CCCc3ccccc3)CC2)c2cc(Cl)ccc2o1`: 543 nM.

Compound `Cc1ccc(OCCCCCCNCCO)c(C)c1` gave an IC50 of 2480 nM. The same measure for `FC(F)(F)c1cccc(CNC2CCN(CCc3ccccc3)CC2)c1`: 490 nM; for `Oc1ccc(Cl)cc1CNc1nc2ccccc2[nH]1`: 1000 nM; for `CCOc1cc(Cl)c(C(C)NC(=O)c2ccccc2)cc1OCC` (stereo unspecified): 828 nM. With `C=CC12CCN(CC1)C(C(O)c1ccnc3ccc(OC)cc13)C2` (stereo unspecified) the figure was 418 nM. Take `O=C(c1ccccc1F)N(Cc1ccc(Cl)cc1)c1ccccn1`: half-maximal inhibition (IC50) was put at 1190 nM. With `COCCn1c(C)nc2ccccc2c1=O` the figure was 930 nM; with `O=C(Nc1cccc(-c2nc3ccccc3[nH]2)c1)c1cccc(NC(=O)c2ccco2)c1`, 506 nM; with `COc1ccc(C(=O)Nc2ccc(Cl)cc2C(=O)Nc2ccncc2)cc1`, 810 nM. The same measure for `O=C(Nc1ccc(CN2CCOCC2)cc1)c1ccc(-c2ccc(Br)cc2)o1`: 958 nM; for `COc1ccccc1CNC(=O)CCn1c(=O)[nH]c2ccccc2c1=O`: 518 nM. As for `OC(Cn1nnc2ccccc21)Cn1c2ccc(Br)cc2c2cc(Br)ccc21` (stereo unspecified), half-maximal inhibition (IC50) required 2030 nM. This IC50 lies about 3.9-fold higher than the previous one. The same measure for `O=C(Nc1ccc(Cl)cc1)N1CCN(c2ccc3nncn3n2)CC1`: 1040 nM. The same measure for `CN(C)c1ccc(-c2nc3cc(N)ccc3[nH]2)cc1`: 1240 nM; for `Cc1ccc2cc3c(N)c4c(C)ccc(C)c4nc3nc2c1`: 1440 nM. With `O=C(CSc1ccc2nnc(-c3cccc(F)c3)n2n1)Nc1ccc2c(c1)OCO2` the figure was 541 nM. The compound `CCCCNCC(O)(c1ccc(Cl)cc1)c1ccc(Cl)cc1` gave an IC50 of 420 nM. The IC50 values of the last two compounds are within 1.5-fold of each other.

`CCCC(c1nnnn1C1CCCCC1)N1CCN(C(=O)c2ccco2)CC1` (stereo unspecified) had an IC50 of 518 nM. The IC50 values of the last two compounds are within 1.5-fold of each other. With `CCCc1cc(O)c2c3c(c(=O)oc2c1)CN(C)CC3` the figure was 2570 nM; with `CC(C)(C)C(=O)Nc1ccc(C(=O)Nc2cccc(-c3nc4ccccc4[nH]3)c2)cc1`, 753 nM; with `COc1ccc(-c2nonc2NC(=O)c2cccc(C)c2)cc1OC`, 904 nM. With `Cc1ccc(CN2CCC(C(=O)Nc3ccc(-c4cc5ccccc5[nH]4)cc3)CC2)o1` the figure was 459 nM; with `OC(CNC1CCCCC1)Cn1c2ccc(I)cc2c2cc(I)ccc21` (stereo unspecified), 436 nM. With `O=C(Nc1ccsc1C(=O)NC1CCCCC1)c1ccc(F)cc1` the figure was 1040 nM; with `O=C(Nc1ccc(Cl)cc1C(=O)Nc1ccncc1)c1ccc(Cl)cc1Cl`, 866 nM. In turn, `O=C(Nc1cccc(C(F)(F)F)c1)c1cc(Cl)ccc1O` displayed an IC50 of 1090 nM. With `CCc1ccc(CNCC(O)c2ccccc2)cc1` (stereo unspecified) the figure was 1870 nM; with `CCOc1ccc(-c2nonc2NC(=O)c2cccc(C)c2)cc1OCC`, 154 nM; with `COc1ccc(C2N(C)c3ccccc3N2C)cc1`, 1100 nM. With `COc1cccc(C(=O)NC(c2ccc(C)cc2)c2cc(Cl)c3cccnc3c2O)c1` (stereo unspecified) the figure was 940 nM. The same measure for `COc1ccc2c(=O)cc(C(Cl)(Cl)Cl)oc2c1`: 958 nM. Regarding `CC(C)(C)CC(C)(C)NCC(O)COc1ccc2c(c1)CCC2` (stereo unspecified), it took 1760 nM to reach half-maximal inhibition (IC50). With `CCOc1ccc(/C=C/c2nc(=O)c3ccccc3o2)cc1` the figure was 740 nM; with `O=C(Nc1ccccc1O)c1ccc(-c2ccc(Cl)cc2Cl)o1`, 2990 nM. The same measure for `O=C(Nc1nc(-c2ccccn2)cs1)c1ccccc1Br`: 1610 nM.

For the compound `O=C(Nc1ccc(F)c(Cl)c1)Nc1ccc(Cl)c(Cl)c1`, 1830 nM corresponded to half-maximal inhibition (IC50). The IC50 values of the last two compounds are within 1.5-fold of each other. The same measure for `Oc1ccc(C(=C(Cl)Cl)c2ccc(O)cc2)cc1`: 1910 nM; for `CCOc1ccc(-c2nc(NC(=O)c3cccc(S(C)(=O)=O)c3)sc2C)cc1`: 1440 nM; for `COc1ccc(C(=O)NC(c2ccccc2Cl)c2cc(Cl)c3cccnc3c2O)cc1` (stereo unspecified): 978 nM.

Compound `COc1ccc(CN2CCN(Cc3ccccc3)CC2)c(O)c1` yielded an IC50 of 1140 nM. The same measure for `CCCCCCc1cc(O)c2c3c(c(=O)oc2c1)CCC(C)C3` (stereo unspecified): 568 nM. The same measure for `COc1ccccc1N1CCN(C(CNS(=O)(=O)c2ccc(Cl)cc2)c2cccnc2)CC1` (stereo unspecified): 913 nM; for `Oc1ccc(Br)cc1CN1CCN(Cc2ccc(Cl)cc2)CC1`: 1520 nM; for `CCCc1c(C)nc2ccccc2c1O`: 637 nM. `CCOc1c(Cl)cc(CNC(C)C(O)c2ccccc2)cc1OC` (stereo unspecified) registered an IC50 of 1360 nM. Compared with the last compound, the IC50 is about 2.1-fold higher. With `COc1ccc(C(=O)C2CC2c2ccc(Cl)cc2)cc1` (stereo unspecified) the figure was 3290 nM; with `CCN(CC)CCCNc1nc(-c2ccc(Cl)cc2)nc2ccccc12`, 425 nM; with `O=c1c2c([nH]c3ccccc13)CCCC2`, 876 nM. With `CN1c2ccccc2N(C)C1c1ccc2c(c1)OCO2` the figure was 1150 nM; with `CC1CC2=C(CC1CNCCCN(C)C)C(C)(C)CCC2` (stereo unspecified), 476 nM; with `O=C(NCC1Cc2cccc(-c3ccncc3)c2O1)c1csc2c1CCCC2` (stereo unspecified), 1690 nM. With `Cc1c(C)n(CC(O)CNC2CCCCC2C)c2ccccc12` (stereo unspecified) the figure was 484 nM.
